# From patent US20090181972A1, “Novel Inhibitors of Cysteine Proteases, the Pharmaceutical Compositions Thereof and their Therapeutic Applications” (priority 2005, published 2009)
# Tests used:
# Cathepsin B = Cathepsin B (Homo sapiens, UniProt P07858); assay: Cathepsin B activity assay; type: biochemical; details: 36 μM z-RR-AMC, 3.6 nM enzyme; pre-incubated 30 minutes at 25° C., 60 minutes at 37° C.; sigmoidal fit
# Method: (§1) Cathepsin B was diluted in Cathepsin B buffer (20 mM Tris HCl pH 6.8; 1 mM EDTA; 1 mM DTT). Compounds stocks (100 mM) were stored at −20° C. in DMSO. Compounds were tested at the following final concentrations: 100 μM; 33.3 μM; 11.1 μM; 3.7 μM; 1.23 μM; 412 nM; 137 nM; 45.7 nM; 15.2 nM; 5 nM. Reactions were performed as duplicates in Black LJL 96 well plates (HE microplates; Molecular Devices; 20 μl final reaction volume). The substrate concentration for cathepsin B specificity assay was 36 μM (z-RR-AMC; Calbiochem). The concentration of the enzyme (Cathepsin B) in specificity assays was 3.6 nM. The concentrations were determined in order to perform specificity assays under initial velocities at fixed substrate concentration. Compounds were pre-incubated with enzymes for 30 minutes at 25° C. Reactions were initiated by addition of substrate to the plates containing the enzymes (+/− compounds) diluted in assay buffer. Reactions were incubated for 60 minutes at 37° C. Reactions were stopped by adding acetic acid (100 mM final). Readings were performed on a Pherastar Fluorescent Reader (BMG). δ Emission 380 nm; δ Excitation=460 nm. Data (mean values +/− standard deviation) were analyzed as % of control (no compound) and plotted as percentage versus the Log of the compound concentration using GraphPad (Prism). Data were fitted to a sigmoidal model (variable slope).
# SENP1 = molecular target: T1, SENP1 (Homo sapiens, UniProt Q9P0U3); assay: SENP1 activity assay; type: biochemical; details: MBP-SENP1 1.8 nM, 200 nM SUMO-AMC; pre-incubated 30 minutes at 25° C., 60 minutes at 37° C.; sigmoidal fit
# T1 construct: made in house; host or cells: E. coli BL21
# T1 sequence (Q9P0U3 1-644): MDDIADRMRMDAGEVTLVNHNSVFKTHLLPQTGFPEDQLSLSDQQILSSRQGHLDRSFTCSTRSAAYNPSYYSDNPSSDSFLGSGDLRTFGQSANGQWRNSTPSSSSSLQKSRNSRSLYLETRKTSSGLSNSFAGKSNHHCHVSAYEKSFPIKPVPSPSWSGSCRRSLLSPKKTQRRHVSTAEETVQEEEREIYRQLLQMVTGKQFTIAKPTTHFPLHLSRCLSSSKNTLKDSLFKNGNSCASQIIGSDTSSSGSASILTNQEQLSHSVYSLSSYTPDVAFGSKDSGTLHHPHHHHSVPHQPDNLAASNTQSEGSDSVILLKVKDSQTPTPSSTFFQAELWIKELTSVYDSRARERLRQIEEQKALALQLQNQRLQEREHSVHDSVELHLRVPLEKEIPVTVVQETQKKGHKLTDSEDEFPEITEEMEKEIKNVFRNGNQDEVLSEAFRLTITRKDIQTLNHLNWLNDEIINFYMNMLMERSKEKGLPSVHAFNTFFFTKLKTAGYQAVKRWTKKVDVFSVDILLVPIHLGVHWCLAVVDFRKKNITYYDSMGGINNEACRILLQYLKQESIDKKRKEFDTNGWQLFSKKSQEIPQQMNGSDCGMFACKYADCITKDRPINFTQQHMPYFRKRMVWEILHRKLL
# Method: The cDNA encoding SENP1 was obtained by PCR amplification from placenta mRNA. SENP1 cDNA was subcloned by PCR into a bacterial expression vector (pMAL-C2X; New England BioLabs, Inc). The sequence was ascertained by sequencing of the entire open reading frame. pMAL-C2-SENP1 was transformed into BL21 cells and grown in LB-ampicillin medium supplemented with glucose (2 g.l^−1). Fusion protein expression was induced by IPTG (0.5 mM). Bacterial cell lysates were harvested and lyzed in lysis buffer (Tris HCl 20 mM pH 7.4; 1 mM EDTA; 200 mM NaCl; 0.5% Triton X-100; 10 % glycerol; Protease Inhibitor Cocktail) followed by sonication. Proteins were affinity purified on amylose affinity resin (New England BioLabs, Inc). Bound materials were extensively washed in wash buffer (20 mM Tris HCl pH 7.4; 200 mM NaCl; 1 mM EDTA; 0.5% Triton X-100; 10% glycerol) and eluted from the resin in 10 mM maltose-containing wash buffer. Proteins were dialyzed in dialysis buffer (Tris HCl pH 7.6 20 mM; NaCl 200 mM; DTT 1 mM; EDTA 1 mM; 10% Glycerol). Proteins purifications were analyzed on 4-12% NuPAGE (Invitrogen).
# MBP-SENP1 was diluted in SENP1 buffer (50 mM Tris HCl; 0.5 mM EDTA; 5 mM DTT; 0.01 % Triton X-100; Bovine Serum Albumin 0.05 mg.ml^−1 pH 7.6). Compounds stocks (100 mM) were stored at −20° C. in DMSO. Compounds were tested at the following final concentrations: 100 μM; 33.3 μM; 11.1 μM; 3.7 μM; 1.23 μM; 412 nM; 137 nM; 45.7 nM; 15.2 nM; 5 nM.
# as §1, with “Reactions” for “Cathepsin B was diluted in Cathepsin B buffer (20 mM Tris HCl pH 6.8; 1 mM EDTA; 1 mM DTT). Compounds stocks (100 mM) were stored at −20° C. in DMSO. Compounds were tested at the following final concentrations: 100 μM; 33.3 μM; 11.1 μM; 3.7 μM; 1.23 μM; 412 nM; 137 nM; 45.7 nM; 15.2 nM; 5 nM. Reactions”, “SENP1” for “cathepsin B specificity assay”, “200 nM SUMO-AMC (Chem. Biol., 2003, 10, p. 837-846) (Boston Biochem).” for “36 μM (z-RR-AMC; Calbiochem).”, “(SENP1)” for “(Cathepsin B)”, “1.8” for “3.6”, “λ” for “δ”
IC50 (Cathepsin B),IC50 (SENP1),Molecule
17.4 µM,> 100 µM,"6-(7)-Chloro-1-methyl-2,3,4,10,10a-pentaaza-cyclopenta[b]fluoren-9-one [Example 3/A]"
9.2 µM,–,"CC(C)c1nnc2nc3c(nn12)C(=O)c1ccccc1-3 [Example 1l/A, 1-lsopropyl-2,3,4,10,10a-pentaaza-cyclopenta[b]fluoren-9-one]"
–,35.7 µM,"CCc1nnc2nc3c(nn12)C(=O)c1cc(OC)c(OC)cc1-3 [Example 5b/A, 1-Ethyl-6,7-dimethoxy-2,3,4,10,10a-pentaaza-cyclopenta[b]fluoren-9-one]"
–,1.28 µM,"CCc1nnc2nc3c(nn12)-c1cc(OC)c(OC)cc1C3=O [Example 5b/B, 3-Ethyl-6,7-dimethoxy-1,2,3a,4,10-pentaaza-cyclopenta[b]fluoren-9-one]"
